Some results are limits rather than exact numbers.

The target of one experiment is T1, his-galectin-3 (Homo sapiens, UniProt P17931).
T1 construct: purchased Abcam
T1 sequence (P17931 whole entry): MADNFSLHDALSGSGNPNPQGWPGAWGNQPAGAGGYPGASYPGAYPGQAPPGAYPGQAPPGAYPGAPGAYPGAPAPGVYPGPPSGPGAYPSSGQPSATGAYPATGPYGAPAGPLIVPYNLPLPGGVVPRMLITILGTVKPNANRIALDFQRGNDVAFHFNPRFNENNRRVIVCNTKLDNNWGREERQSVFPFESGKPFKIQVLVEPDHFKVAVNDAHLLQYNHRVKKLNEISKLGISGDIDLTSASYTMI
Put plainly: TR-FRET assay (in vitro galectin-3 binding inhibitory activity test). Conditions: Table 1; compound at 20 μM; 60 nM his-galectin-3, 15 nM biotin-ASF. In a few lines:
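Compound is premixed with his-galectin-3 (60 nM final), then biotin-ASF (15 nM), Tb anti-His antibody (2 nM) and streptavidin-d2 (20 nM) are added. After at least 3.5 hours at RT in HEPES/NaCl buffer with Tween 20 and BSA, TR-FRET is read at 615/665 nm. DMSO serves as the uninhibited control, ASF omission as background.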
Turning to `O=C1CCCC2(O[C@H](CO)[C@H](O)[C@H](n3cc(-c4cc(F)c(F)c(F)c4)nn3)[C@H]2O)N1CC(F)F` (stereo partly drawn) [Compound A94, (2R,3R,4S,5R)-7-(2,2-difluoroethyl)-3.5-dihydroxy-2-(hydroxymethyl)-4-(4-(3,4,5-trifluorophenyl)-1H-1,2,3-triazol-1-yl)-1-oxa-7-azaspiro[5.5]undecan-8-one], the “% Inhibitory activity (at 20 μM)” value is given as “D (inhibition rate was less than 25%)”.

Staying with this experiment, now noted: Table 1; compound at 20 μM; 60 nM his-galectin-3, 15 nM biotin-ASF; read-out: % Inhibitory activity (at 20 μM).
Take `OC[C@H]1O[C@@]2(CCCO2)[C@H](OCc2cccc(F)c2)[C@@H](n2cc(-c3cc(F)c(F)c(F)c3)nn2)[C@H]1O` [Compound A91, (5S,7R,8R,9S,10R)-10-((3-fluorobenzyl)oxy)-7-(hydroxymethyl)-9-(4-(3,4,5-trifluorophenyl)-1H-1,2,3-triazol-1-yl)-1,6-dioxaspiro[4.5]decan-8-ol]: the inhibition at 20 µM is less than 25%. On the same count and under the same terms, the figure for `O=C(O[C@@H]1[C@@H](n2cc(-c3cc(F)c(F)c(F)c3)nn2)[C@@H](O)[C@@H](CO)O[C@@]12CCCO2)c1cc(F)cc(F)c1` [Compound A92, (5S,7R,8R,9S,10R)-8-hydroxy-7-(hydroxymethyl)-9-(4-(3,4,5-trifluorophenyl)-1H-1,2,3-triazol-1-yl)-1,6-dioxaspiro[4.5]decan-10-yl 3,5-difluorobenzoate] is 25 to 50%; for `O=C1CCCC2(N1)O[C@H](CO)[C@H](O)[C@H](n1cc(-c3cc(F)c(F)c(F)c3)nn1)[C@H]2OCc1ccccc1` (stereo partly drawn) [Compound A93, (2R,3R,4S,5R)-5-(benzyloxy)-3-hydroxy-2-(hydroxymethyl)-4-(4-(3,4,5-trifluorophenyl)-1H-1,2,3-triazol-1-yl)-1-oxa-7-azaspiro[5.5]undecan-8-one] it is less than 25%. Consider `O=C1CCCC2(O[C@H](CO)[C@H](O)[C@H](n3cc(-c4cc(F)c(F)c(F)c4)nn3)[C@H]2O)N1CC1CCS(=O)(=O)CC1` (stereo partly drawn) [Compound A95, (2R,3R,4S,5R)-7-((1,1-dioxidotetrahydro-2H-thiopyran-4-yl)methyl)-3,5-dihydroxy-2-(hydroxymethyl)-4-(4-(3,4,5-trifluorophenyl)-1H-1,2,3-triazol-1-yl)-1-oxa-7-azaspiro[5.5]undecan-8-one], for which the inhibition at 20 µM was less than 25%. Still for that read-out and setting: then `OC[C@H]1O[C@]2(OCC[C@H]2NCc2cccc(C(F)(F)F)c2)[C@H](O)[C@@H](n2cc(-c3cc(F)c(F)c(F)c3)nn2)[C@H]1O` [Compound A96, (4R,5S,7R,8R,9S,10R)-7-(hydroxymethyl)-4-((3-(trifluoromethyl)benzyl)amino)-9-(4-(3,4,5-trifluorophenyl)-1H-1,2,3-triazol-1-yl)-1,6-dioxaspiro[4.5]decane-8,10-diol], with less than 25%; and `OC[C@H]1O[C@]2(OCC[C@H]2NCc2ccc(Cl)cc2)[C@H](O)[C@@H](n2cc(-c3cc(F)c(F)c(F)c3)nn2)[C@H]1O` [Compound A97, (4R,5S,7R,8R,9S,10R)-4-((4-chlorobenzyl)amino)-7-(hydroxymethyl)-9-(4-(3,4,5-trifluorophenyl)-1H-1,2,3-triazol-1-yl)-1,6-dioxaspiro[4.5]decane-8,10-diol], with less than 25%; and `OC[C@H]1O[C@]2(OCC[C@H]2NCc2ccccn2)[C@H](O)[C@@H](n2cc(-c3cc(F)c(F)c(F)c3)nn2)[C@H]1O` [Compound A98, (4R,5S,7R,8R,9S,10R)-7-(hydroxymethyl)-4-((pyridin-2-ylmethyl)amino)-9-(4-(3,4,5-trifluorophenyl)-1H-1,2,3-triazol-1-yl)-1,6-dioxaspiro[4.5]decane-8,10-diol], with less than 25%. Regarding `OC[C@H]1O[C@]2(CCCO2)[C@H](O)[C@@H](n2cc(-c3cc(F)c(F)c(F)c3)nn2)[C@H]1O` [Compound A100, (5R,7R,8R,9S,10R)-7-(hydroxymethyl)-9-(4-(3,4,5-trifluorophenyl)-1H-1,2,3-triazol-1-yl)-1,6-dioxaspiro[4.5]decane-8,10-diol], the inhibition at 20 µM was 25 to 50%.

Take `OC[C@H]1OC2(CCCC2)[C@H](O)[C@@H](n2cc(-c3cc(F)c(F)c(F)c3)nn2)[C@H]1O` [Compound A101, (7R,8R,9S,10R)-7-(hydroxymethyl)-9-(4-(3,4,5-trifluorophenyl)-1H-1,2,3-triazol-1-yl)-6-oxaspiro[4.5]decane-8,10-diol]: the inhibition at 20 µM is 25 to 50%.

Take `OC[C@H]1O[C@]2(OCC[C@H]2NCc2cccc(Br)c2)[C@H](O)[C@@H](n2cc(-c3cc(F)c(F)c(F)c3)nn2)[C@H]1O` [Compound A102, (4R,5S,7R,8R,9S,10R)-4-((3-bromobenzyl)amino)-7-(hydroxymethyl)-9-(4-(3,4,5-trifluorophenyl)-1H-1,2,3-triazol-1-yl)-1,6-dioxaspiro[4.5]decane-8,10-diol]: the inhibition at 20 µM was in the range of 25 to 50%.

With `CN(Cc1cccc(Cl)c1)[C@@H]1CCO[C@]12O[C@H](CO)[C@H](O)[C@H](n1cc(-c3cc(F)c(F)c(F)c3)nn1)[C@H]2O` [Compound A103, (4R,5S,7R,8R,9S,10R)-4-((3-chlorobenzyl)(methyl)amino)-7-(hydroxymethyl)-9-(4-(3,4,5-trifluorophenyl)-1H-1,2,3-triazol-1-yl)-1,6-dioxaspiro[4.5]decane-8,10-diol], the inhibition at 20 µM was less than 25%. As for `OC[C@H]1O[C@]2(OCC[C@H]2NCC2CCCC2)[C@H](O)[C@@H](n2cc(-c3cc(F)c(F)c(F)c3)nn2)[C@H]1O` [Compound A104, (4R,5S,7R,8R,9S,10R)-4-((cyclopentylmethyl)amino)-7-(hydroxymethyl)-9-(4-(3,4,5-trifluorophenyl)-1H-1,2,3-triazol-1-yl)-1,6-dioxaspiro[4.5]decane-8,10-diol], the inhibition at 20 µM was less than 25%.

For `O=C(N[C@@H]1CCO[C@]12O[C@H](CO)[C@H](O)[C@H](n1cc(-c3cc(F)c(F)c(F)c3)nn1)[C@H]2O)C1CCCC1` [Compound A107, N-((4R,5S,7R,8R,9S,10R)-8,10-dihydroxy-7-(hydroxymethyl)-9-(4-(3,4,5-trifluorophenyl)-1H-1,2,3-triazol-1-yl)-1,6-dioxaspiro[4.5]decan-4-yl)cyclopentancarboxamide], the inhibition at 20 µM was in the range of 25 to 50%. For the molecule `O=C(CC1CCCC1)N[C@@H]1CCO[C@]12O[C@H](CO)[C@H](O)[C@H](n1cc(-c3cc(F)c(F)c(F)c3)nn1)[C@H]2O` [Compound A108, 2-cyclopentyl-N-((4R,5S,7R,8R,9S,10R)-8,10-dihydroxy-7-(hydroxymethyl)-9-(4-(3,4,5-trifluorophenyl)-1H-1,2,3-triazol-1-yl)-1,6-dioxaspiro[4.5]decan-4-yl)acetamide], the inhibition at 20 µM fell in the range of 25 to 50%.

Still in this experiment, the particulars now being: Table 3, found values; compound at 20 μM; 60 nM his-galectin-3, 15 nM biotin-ASF; read-out: % Inhibitory activity (at 20 μM).
Consider `OC[C@H]1O[C@]2(CCCO2)[C@H](O)[C@@H](n2cc(-c3cc(F)c(F)c(F)c3)nn2)[C@H]1O` [Compound A100, (5R,7R,8R,9S,10R)-7-(hydroxymethyl)-9-(4-(3,4,5-trifluorophenyl)-1H-1,2,3-triazol-1-yl)-1,6-dioxaspiro[4.5]decane-8,10-diol], for which the inhibition at 20 µM came to 48.1%.

Still in this experiment, the particulars now being: read-out: % Inhibitory activity (at 20 μM), Table 1; compound at 20 μM; 60 nM his-galectin-3, 15 nM biotin-ASF.
Turning to `OC[C@H]1O[C@]2(OCC[C@H]2NCc2ccccc2)[C@H](O)[C@@H](n2cc(-c3cc(F)c(F)c(F)c3)nn2)[C@H]1O` [Compound A105, (4R,5S,7R,8R,9S,10R)-4-(benzylamino)-7-(hydroxymethyl)-9-(4-(3,4,5-trifluorophenyl)-1H-1,2,3-triazol-1-yl)-1,6-dioxaspiro[4.5]decane-8,10-diol], the inhibition at 20 µM is less than 25%. On the same count and under the same terms, the figure for `O=C(Cc1cccc(Cl)c1)N[C@@H]1CCO[C@]12O[C@H](CO)[C@H](O)[C@H](n1cc(-c3cc(F)c(F)c(F)c3)nn1)[C@H]2O` [Compound A106, 2-(3-chlorophenyl)-N-((4R,5S,7R,8R,9S,10R)-8,10-dihydroxy-7-(hydroxymethyl)-9-(4-(3,4,5-trifluorophenyl)-1H-1,2,3-triazol-1-yl)-1,6-dioxaspiro[4.5]decan-4-yl)acetamide] is 50 to 75%.

For the origin of these results see patent US20250026778A1 (TIUMBIO CO., LTD., priority 2021, published 2025).
